Data on eight compounds can be found in patent US20250344731A1, “SALTY TASTE/UMAMI ENHANCER” (AJINOMOTO CO., INC., priority 2023, published 2025).

Structures are written as SMILES.

A short description of experiment [1]: Sensory evaluation of saltiness enhancement function, naringenin-related flavonoid components in NaCl aqueous solution (Example 3). To be noted: for saltiness intensity: 30 ppm in NC salt water (NaCl 0.8%), scale NC = 1.0, PC1 0.9% = 2.0, PC2 1.0% = 3.0, panel of three, average. The source says:
1) The following flavonoid components were used as naringenin-related flavonoid components: • Luteolin (manufactured by Salus Nutra Inc.), pinocembrin (manufactured by Xi'an Demeter Biotech Co., Ltd.), liquiritigenin (manufactured by Xi'an Julong Import and Export Co., Ltd.), apigenin (manufactured by Xi'an Best Bio-Tech Co., Ltd.), and acacetin (manufactured by Xi'an Reain Biotechnology Co., Ltd.)
2) The following compound was used as control component: Quercetin (manufactured by Medience Corporation) (structure shown below)
As shown in Table 7: NaCl aqueous solution (weight g/100 g), various NaCl aqueous solutions (saline solutions) were prepared. Water at ordinary temperature was used for preparation.
Each naringenin-related flavonoid component dissolved in propylene glycol (SIGMA) at 10000 ppm was added to the prepared 0.8% salt water solution such that the concentration at the time of eating (corresponding to the content of the present flavonoid component or a salt thereof in the oral ingestion product at the time of oral ingestion, as a flavonoid component relative to the oral ingestion product) was 30 ppm (Table 8).
The saltiness intensity of each sample was blindly evaluated using a scoring system in 0.5 point increments, with the saltiness intensity of NC in test plot 1 as 1.0 point, the saltiness intensity of PC1 as 2.0 points, and the saltiness intensity of PC2 as 3.0 points. The evaluation was performed by a trained panel of three, and the average score was used. Since the saltiness intensity of 2.0 points of PC1 is evaluated to be clearly stronger in saltiness than NC, samples with a saltiness intensity of 1.5 points or more (NaCl 0.85% or more) were evaluated to have a saltiness enhancement function. In addition, the presence or absence, and intensity of off-taste (bitterness and harsh taste other than saltiness) were also evaluated. The evaluation results are shown in Table 9: Sensory evaluation (saltiness intensity).

The nature of experiment [2]: Sensory evaluation of umami enhancement function, naringenin-related flavonoid components in umami solution (Example 4). To be noted: for degree of umami enhancement (times) / umami intensity (points): 30 ppm in NC (sodium glutamate 0.1%); for degree of umami enhancement (times): relative to NC; for umami intensity (points): scale water = 0, NC = 0.30, panel of three, average. The protocol: • 1) The five naringenin-related flavonoid components evaluated in Example 3 were used. • 2) Quercetin was used as the control component. Umami solutions were prepared as shown in Table 10: Umami solution (weight g/100 g). Water at ordinary temperature was used for preparation. Each naringenin-related flavonoid component and the like dissolved in propylene glycol (SIGMA) at 10000 ppm was added to the prepared 0.1% umami aqueous solution such that the concentration at the time of eating was 30 ppm (Table 11). The umami intensity of each sample was blindly evaluated using a scoring system in 0.05 point increments, with the umami intensity of water in test plot 1 as 0 point and the umami intensity of NC in test plot 2 as 0.30 points. The evaluation was performed by a trained panel of three, and the average score was used. The umami enhancement function of samples whose umami intensity was enhanced by 1.5 times or more (sodium glutamate 0.45 points or more) due to the addition was evaluated to be functional. In addition, the presence or absence, and intensity of off-taste (bitterness and harsh taste other than umami) were also evaluated. The evaluation results are shown in Table 12: Sensory evaluation (umami intensity).

Experiment [3] in a line: Sensory evaluation of saltiness enhancement function, naringenin/naringin added to NaCl aqueous solution (Example 1). As to conditions: for saltiness intensity: scale NC = 1.00, PC 0.9% NaCl = 5.5; for saltiness enhancement function: addition of 1 ppm or more to salt water, function = saltiness intensity 1.8 points or more. The protocol: As shown in Table 1: NaCl aqueous solution (weight g/100 g), various NaCl aqueous solutions (saline solutions) were prepared. Filtered water at ordinary temperature was used for preparation. Water, naringenin (Penta Manufacturing), or naringin (IKEDA CORPORATION) were weighed and added to the prepared 0.8% aqueous solution at various concentrations shown in Table 2: Prepared sensory evaluation samples. The saltiness intensity of each sample was blindly evaluated using a scoring system in 0.1 point increments, with the saltiness intensity of NC in test plot 1 as 1.00 point and the saltiness intensity of PC in test plot 2 as 5.5 points. The evaluation was performed by a trained panel of three, and the average score of each panel was used. Samples with a saltiness intensity of 1.8 points or more (NaCl 0.84% or more) due to the addition were evaluated to “have a saltiness enhancement function”. In addition, the presence or absence, and intensity of off-taste (bitterness and harsh taste other than saltiness) were also evaluated. The evaluation results are shown in Table 3: Sensory evaluation (saltiness intensity).

A short description of experiment [4]: Sensory evaluation of umami enhancement function, naringenin/naringin added to sodium glutamate umami solution or water (Example 2). To be noted: for umami enhancement function: addition to umami solution (sodium glutamate, sodium aspartate), 30 ppm, function = 1.5 times or more. The protocol: (§1) As shown in Table 4: Umami solution (weight g/100 g), an umami solution was prepared. Water at ordinary temperature was used for preparation. Water, naringenin (Penta manufacturing) or naringin (IKEDA CORPORATION) were weighed and added to each of the prepared umami solutions or water at various concentrations shown in Table 5: Prepared sensory evaluation samples. The umami intensity of each sample was blindly evaluated using a scoring system in 0.01 point increments, with the umami intensity of water in test plot 1 as 0 point, the umami intensity of NC in test plot 3 as 0.30 points, and the umami intensity of NC2 in test plot 4 as 0.10 point. The evaluation was performed by a trained panel of three, and the average score of each panel was used. Samples whose umami intensity was enhanced by 1.5 times or more (sodium glutamate 0.45 points or more, sodium aspartate 0.15 points or more) due to the addition were evaluated to “have an umami enhancement function”. In addition, the presence or absence, and intensity of off-taste (bitterness and harsh taste other than umami) were also evaluated. The evaluation results are shown in Table 6: Sensory evaluation (umami intensity).

Experiment [5] in a line: Sensory evaluation of umami enhancement function, naringenin/naringin added to sodium aspartate umami solution (Example 2). To be noted: 30 ppm added to NC2 (Asp-Na, sodium aspartate 0.2%); for umami intensity (points): NC2 = 0.10 point; for degree of umami enhancement (times): relative to NC2. Here is the method:
as §1

The nature of experiment [6]: Sensory evaluation of saltiness enhancement function, naringenin/naringin added to NaCl aqueous solution (Example 1). To be noted: 30 ppm added to water (NaCl 0%); scale NC 0.8% NaCl = 1.00, PC 0.9% NaCl = 5.5; panel of three, average.
Setting [7] is: 1 ppm added to NC salt water (NaCl 0.8%).
Setting [8] is: 10 ppm added to NC salt water (NaCl 0.8%).
Where [9] appears, read: 30 ppm added to NC salt water (NaCl 0.8%).
Setting [10] is: 30 ppm added to NC1 (MSG, sodium glutamate 0.1%), NC1 = 0.30 points.
Where [11] appears, read: 30 ppm added to NC1 (MSG, sodium glutamate 0.1%), relative to NC1.
Where [12] appears, read: 30 ppm added to water, scale water = 0, NC1 = 0.30, NC2 = 0.10.

Take `O=c1c(O)c(-c2ccc(O)c(O)c2)oc2cc(O)cc(O)c12` [Quercetin, reference compound]: the saltiness intensity in experiment [1] is listed as 1.3 points. Further, in experiment [1] (30 ppm in salt water (NaCl 0.8%), function = 1.5 points or more), the saltiness enhancement effect entry was “did not show a saltiness enhancement effect”. In experiment [2], the “degree of umami enhancement (times)” value is 1.00 times and the “umami intensity (points)” value worked out at 0.30 points.

Consider `O=c1cc(-c2ccc(O)c(O)c2)oc2cc(O)cc(O)c12` [Luteolin, 2-(3,4-dihydroxyphenyl)-5,7-dihydroxy-4-chromenone], for which the saltiness intensity in experiment [1] is given as 2.0 points. For the same compound, in experiment [2], the “degree of umami enhancement (times)” value was 1.43 times and the “umami intensity (points)” value was 0.43 points. Also, the umami enhancement effect entry in experiment [2] (30 ppm in umami solution (sodium glutamate 0.1%), functional = 1.5 times or more) is “tendency to enhance umami”.

For the compound `O=C1C[C@@H](c2ccc(O)cc2)Oc2cc(O)cc(O)c21` (stereo in doubt) [Naringenin, 5,7-dihydroxy-2-(4-hydroxyphenyl)chroman-4-one], the saltiness intensity in experiment [3] (setting [7]) came out at 1.9 points; in experiment [3] (5 ppm added to NC salt water (NaCl 0.8%)) it was 2.4 points; in experiment [3] (setting [8]), 3.0 points; in experiment [3] (setting [9]), 2.9 points; in experiment [6] it was 0 points. Further, in experiment [3], the saltiness enhancement function result was “showed a saltiness enhancement function”. The results for the “umami intensity (points)” value in experiment [4] (setting [10]), in experiment [4] (setting [12]) and in experiment [5] were 0.47 points, 0.00 points and 0.20 points, respectively. The “degree of umami enhancement (times)” value in experiment [4] (setting [11]) was 1.6 times; in experiment [4] (30 ppm added to water), 0 times; in experiment [5], 2.0 times. The umami enhancement function result in experiment [4] was “showed an umami enhancement function”.

Turning to `O=c1cc(-c2ccc(O)cc2)oc2cc(O)cc(O)c12` [Apigenin, 5,7-dihydroxy-2-(4-hydroxyphenyl)-4H-1-benzopyran-4-one], the saltiness intensity in experiment [1] came to 3.5 points. Besides, in experiment [2], the “degree of umami enhancement (times)” value was 1.87 times and the “umami intensity (points)” value stood at 0.56 points.

Turning to `COc1ccc(-c2cc(=O)c3c(O)cc(O)cc3o2)cc1` [Acacetin, 5,7-dihydroxy-4-methoxyflavone], the saltiness intensity in experiment [1] was found to be 3.5 points. Further, in experiment [2], the “degree of umami enhancement (times)” value is on record as 1.67 times and the “umami intensity (points)” value is 0.50 points.

With `O=C1C[C@@H](c2ccc(O)cc2)Oc2cc(O)ccc21` [Liquiritigenin, (2S)-4′,7-dihydroxyflavan-4-one], in experiment [1], the saltiness intensity was found to be 3.5 points. In experiment [2], the “degree of umami enhancement (times)” value is listed as 1.87 times and the “umami intensity (points)” value is listed as 0.56 points.

As to `C[C@@H]1O[C@@H](O[C@H]2[C@H](Oc3cc(O)c4c(c3)O[C@H](c3ccc(O)cc3)CC4=O)O[C@H](CO)[C@@H](O)[C@@H]2O)[C@H](O)[C@H](O)[C@H]1O` [Naringin, naringin, reference compound], the saltiness intensity in experiment [3] (setting [7]) is 1.8 points; in experiment [3] (setting [8]) it was 2.1 points; in experiment [3] (setting [9]), 2.2 points; in experiment [6], 0 points. In addition, the saltiness enhancement function entry in experiment [3] is “also showed a saltiness enhancement function”. For the same compound, the “umami intensity (points)” value in experiment [4] (setting [10]) is listed as 0.35 points; in experiment [4] (setting [12]), 0.00 points; in experiment [5] it was 0.12 points. For the same compound, the “degree of umami enhancement (times)” value in experiment [4] (setting [11]) amounted to 1.2 times; in experiment [4] (30 ppm added to water), 0 times; in experiment [5] it was 1.2 times. Also, the umami enhancement function result in experiment [4] is given as “no enhancement of the umami intensity was observed”.

As for `O=C1CC(c2ccccc2)Oc2cc(O)cc(O)c21` (stereo not drawn) [Pinocembrin, 5,7-dihydroxy-2-phenyl-2,3-dihydro-4H-chromene-4-one], in experiment [1], the saltiness intensity is 2.0 points. For the same compound, in experiment [2], the “degree of umami enhancement (times)” value is 1.67 times and the “umami intensity (points)” value stood at 0.50 points.
